Measured values reported in US20260070887A1 (Shenzhen Zhongge Biological Technology Co., Ltd., priority 2022, published 2026).
Where two headings read alike, the source gives them in different places.

Key:
KIF18A = KIF18A (Homo sapiens (Human), UniProt Q8NI77); experiment: KIF18A ATPase activity under tubulin stimulation (ADP-Glo assay); type: biochemical; conditions: KIF18A 30 nM, ATP 150 μM, pig microtubules
OVCAR-3 cells = experiment: OVCAR-3 cell proliferation (Cell Titer-Glo, 10 days); type: cell-based, human
Outline: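 400 cells per well were seeded onto pre-dispensed compound (final 0.12 nM to 10 μM) in RPMI-1640 with 20% FBS and insulin, then co-cultured for 10 days. Viability was read as Cell Titer-Glo luminescence, inhibition was taken against 0.1% DMSO control, and IC50 came from nonlinear concentration-inhibition regression.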

HCC1954 cells = experiment: HCC1954 cell proliferation (Cell Titer-Glo, 6 days); type: cell-based; conditions: KIF18A-sensitive tumor cells
Experimental: (§1) The inhibitory effect on the KIF18A target by the compounds of the present disclosure was evaluated by testing the inhibitory effect on proliferation of HCC1954 and HCC1395 cells by the compounds of the present disclosure.
(§2) HCC1954 (ATCC, CRL-2388) and HCC1395 (ATCC, CRL-2324) cells were cultured separately in RPMI-1640 complete medium (Gibco, A1049101) containing 20% fetal bovine serum (Gibco, 10099141C), 100 U penicillin, and 100 μg/mL streptomycin (Gibco, 15140-122). The Promega kit Cell Titer-Glo (Promega: G7572) was used in this method for test. • 1. HCC1954 (KIF18A-sensitive tumor cells) and HCC1395 (KIF18A-insensitive tumor cells) were cultured separately in T75 cell culture flasks (Corning, 430641), and the medium was placed in a 37° C., 5% CO2 incubator. • 2. When the cell density reached 70% to 80% (about 2 to 3 times per week), cells are passaged with trypsin (0.25% EDTA). • 3. The cell culture flask was taken out and the cells were separated by adding 2 mL of trypsin (0.25% EDTA source) for 5 minutes. • 4. Digestion was stopped by adding 8 mL of RPM1-1640 medium and the cell suspension was transferred to a centrifuge tube and centrifuged at 1000 rpm for 5 minutes. • 5. The cells were resuspended with 5 mL of RPMI-1640 medium. Cell density was adjusted to 5×10^3/mL (HCC1954), and 2.5×10^4/mL (HCC1395), respectively. • 6. 40 μL of cell solution was added to the 384-well plate (Corning, 3765). • 7. The 384-well plate was centrifuged at 1000 rpm for 1 minute. • 8. The cells were cultured overnight in a 37° C., 5% CO2 incubator. • 9. The next day, 40 nL of compound solution was added to the 384-well plate using Echo650. The plate was then placed in a 37° C., 5% CO2 incubator for 6 days. • 10. After 6 days, 20 μL of Cell-Titer-Glo (Promega, G7572) reagent was added per well. • 11. Luminescence values were measured using the EnVision Xcite Multilabel Reader (PerkinElmer, 2105-0020).
(§3) The percentage of inhibition of cell proliferation by the test compound at each concentration was calculated by comparing with the values of the control group (0.1% DMSO). The IC50 values of the compounds were obtained by concentration-inhibition rate nonlinear regression analysis of the test compounds using GraphPad Prism 9.

HCC1395 cells = experiment: HCC1395 cell proliferation (Cell Titer-Glo, 6 days); type: cell-based; conditions: KIF18A-insensitive tumor cells
Experimental: as §1, §2, §3

PK study in ICR mice = type: in vivo, mouse; conditions: both sexes, mouse, plasma, route and dose not given
Experimental: 6 ICR mice (male/female) were divided into two groups, administered orally and intravenously, respectively, with 3 mice/group. The mice were fasted for 10-14 hours prior to dosing with free access to water.
The test compound was weighed according to the administration dose, and prepared into a dose formulation at appropriate concentrations (for rats and mice, intravenous and oral administration at a volume of 5 mL/kg and 10 mL/kg, respectively), wherein the intravenous injection was a clear solution, and the oral preparation was a clear solution or a homogeneous suspension.
Animals were dosed by intravenous injection and oral gavage, and blood samples were collected at 0.033, 0.083, 0.25, 0.5, 1, 2, 4, 8, and 24 h after intravenous administration and 0.083, 0.25, 0.5, 1, 2, 4, 6, 8, and 24 h after oral administration. Whole blood was centrifuged at 6800 g for 6 min at 4° C. and the top plasma was stored in a −80° C. freezer for later analysis.
The DMSO stock solution of the test compound was diluted into a series of working solutions with a methanol or an acetonitrile solution, and added to a blank plasma matrix, and standard curves were generated and quality control samples were prepared. An appropriate volume of the plasma sample was taken and a suitable multiple of methanol or acetonitrile containing an internal standard was added for protein precipitation based on the response. After centrifugation of all samples at 18000 g for 10 min at 4° C., an appropriate amount of supernatant was taken for LC-MS/MS injection analysis.
Drug concentration-time curves in plasma were plotted according to test concentrations, and pharmacokinetic parameters were calculated using noncompartmental analysis by WinNonlin software, including: half-life (T½), area under the concentration-time curve from time zero to time t (AUCO-t), clearance (CL), volume of distribution at steady state (Vss) and bioavailability (F), with some of the test results shown in Table 4.

hERG channel = hERG channel (Homo sapiens (Human), UniProt Q12809); experiment: hERG manual patch clamp test; type: cell-based
hERG channel, sequence (Q12809 whole entry, the tested form may be a part): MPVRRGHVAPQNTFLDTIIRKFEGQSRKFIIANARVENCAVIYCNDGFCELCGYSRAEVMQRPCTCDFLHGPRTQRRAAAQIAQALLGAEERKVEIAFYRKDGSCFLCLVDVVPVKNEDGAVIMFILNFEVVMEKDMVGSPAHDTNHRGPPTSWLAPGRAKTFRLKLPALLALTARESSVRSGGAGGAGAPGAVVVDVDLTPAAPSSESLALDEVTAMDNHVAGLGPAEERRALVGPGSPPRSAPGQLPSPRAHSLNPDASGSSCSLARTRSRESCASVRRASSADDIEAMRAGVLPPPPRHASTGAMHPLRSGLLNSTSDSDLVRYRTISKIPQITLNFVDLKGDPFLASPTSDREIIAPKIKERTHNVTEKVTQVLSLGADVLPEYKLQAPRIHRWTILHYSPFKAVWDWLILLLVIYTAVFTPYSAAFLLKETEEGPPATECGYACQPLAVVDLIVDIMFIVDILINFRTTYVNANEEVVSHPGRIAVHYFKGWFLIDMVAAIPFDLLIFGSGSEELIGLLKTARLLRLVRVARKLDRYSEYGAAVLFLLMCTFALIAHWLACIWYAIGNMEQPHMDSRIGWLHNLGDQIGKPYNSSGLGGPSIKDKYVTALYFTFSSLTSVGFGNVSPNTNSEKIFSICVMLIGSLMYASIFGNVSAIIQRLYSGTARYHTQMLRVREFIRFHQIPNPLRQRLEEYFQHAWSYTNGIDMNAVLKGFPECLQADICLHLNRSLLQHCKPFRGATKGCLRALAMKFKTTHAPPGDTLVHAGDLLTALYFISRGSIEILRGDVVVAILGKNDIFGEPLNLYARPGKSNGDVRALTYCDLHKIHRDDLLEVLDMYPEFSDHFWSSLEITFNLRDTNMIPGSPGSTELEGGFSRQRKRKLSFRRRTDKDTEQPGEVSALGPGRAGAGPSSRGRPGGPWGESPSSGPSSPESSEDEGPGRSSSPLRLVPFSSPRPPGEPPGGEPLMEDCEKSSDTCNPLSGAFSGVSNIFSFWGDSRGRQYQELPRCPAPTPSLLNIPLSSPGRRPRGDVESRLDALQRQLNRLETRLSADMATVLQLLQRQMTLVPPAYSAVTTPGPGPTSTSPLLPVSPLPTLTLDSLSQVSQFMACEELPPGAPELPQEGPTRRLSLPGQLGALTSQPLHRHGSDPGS
Experimental: The cells used in this test were the HEK293 cell line transfected with hERG cDNA and stably expressing the hERG channel (#60187, supplied by BPS, passages P3-P23 for experimental studies). The cells were cultured in a medium containing the following components: MEM medium containing 10% (v/v) inactivated fetal calf serum, 1 mM sodium pyruvate, 500 μg/ml geneticin, 0.1 mM non-essential amino acids, and 100 U/m1 penicillin/streptomycin. HEK293 hERG cells were grown in a culture dish containing the above-mentioned medium, cultured in a 37° C., 5% CO2 incubator, and passaged approximately three times per week, with the cell fusion rate between 40% and 80%. 24 to 48 hours prior to electrophysiological experiments, HEK293 hERG cells were transferred to 0.05 mg/ml PDL-pretreated slides, seeded at a density of 1×10^4 cells per well in a 48-well plate, and grown in the same medium and under the same culture conditions. The density of HEK293 hERG cells on each circular slide needs to reach the requirement that most cells are independent and individual. The extracellular fluid components used in the hERG assay were as follows (mM): 145 NaCl, 4 KCl, 2 CaCl2, 1 MgCl2, 10 glucose, and 10 HEPES (pH adjusted to 7.40 with NaOH). The intracellular fluid components were as follows (mM): 130 KCl, 2 MgCl2, 5 EGTA, 10 HEPES and 5 Na2ATP (pH adjusted to 7.25 with KOH). […] Prior to the experiment, the compound was first serially diluted with DMSO to prepare stock solutions at 10, 3, 1, 0.3, and 0.1 mM, which were then further diluted with extracellular fluid to achieve the final test concentrations (in μM). The final concentration of DMSO in compound solutions at various concentrations was between 0.1% and 0.3%. All compound solutions are routinely sonicated for 5 to 10 min and shaken sufficiently to ensure complete dissolution of the compound, and all test solutions are mixed well by rotation for at least 10 min.
Electrophysiological tests were performed using a manual patch clamp system (HEKA EPC-10 signal amplifier and digital conversion system, HEKA Electronics, Germany) for the recording of whole cell currents. The specific test method was described as follows: Circular slides with […] hERG cells growing on the surface were placed in an electrophysiological recording chamber under an inverted microscope. The recording chamber was continuously perfused with extracellular fluid (at approximately 1 mL/min). The conventional whole-cell patch-clamp technique was employed for current recordings throughout the experiment. If not specified, the experiments were carried out at normal room temperature (about 25° C.). The cells were clamped at −80 mV. The cell clamp voltage was depolarized to +30 mV to activate the hERG potassium channel, and then clamped to −50 mV after 5 seconds to eliminate inactivation and produce a tail current. The peak tail current value was used as a value for the magnitude of the hERG current. The potassium current of hERG recorded in the above steps was stabilized by continuous extracellular fluid perfusion in the recording chamber, and the drug to be tested was continuously perfused until the inhibitory effect of the drug on hERG currents had stabilized. The coincidence of the most recent three consecutive current recording traces was typically taken as the criteria for determining whether steady-state conditions were achieved.
Dose-response curves of the test compounds were plotted with % hERG inhibition rate as the y-axis and test compound concentration as the x-axis, to calculate the IC50 values.

KIF18A, sequence (Q8NI77 whole entry): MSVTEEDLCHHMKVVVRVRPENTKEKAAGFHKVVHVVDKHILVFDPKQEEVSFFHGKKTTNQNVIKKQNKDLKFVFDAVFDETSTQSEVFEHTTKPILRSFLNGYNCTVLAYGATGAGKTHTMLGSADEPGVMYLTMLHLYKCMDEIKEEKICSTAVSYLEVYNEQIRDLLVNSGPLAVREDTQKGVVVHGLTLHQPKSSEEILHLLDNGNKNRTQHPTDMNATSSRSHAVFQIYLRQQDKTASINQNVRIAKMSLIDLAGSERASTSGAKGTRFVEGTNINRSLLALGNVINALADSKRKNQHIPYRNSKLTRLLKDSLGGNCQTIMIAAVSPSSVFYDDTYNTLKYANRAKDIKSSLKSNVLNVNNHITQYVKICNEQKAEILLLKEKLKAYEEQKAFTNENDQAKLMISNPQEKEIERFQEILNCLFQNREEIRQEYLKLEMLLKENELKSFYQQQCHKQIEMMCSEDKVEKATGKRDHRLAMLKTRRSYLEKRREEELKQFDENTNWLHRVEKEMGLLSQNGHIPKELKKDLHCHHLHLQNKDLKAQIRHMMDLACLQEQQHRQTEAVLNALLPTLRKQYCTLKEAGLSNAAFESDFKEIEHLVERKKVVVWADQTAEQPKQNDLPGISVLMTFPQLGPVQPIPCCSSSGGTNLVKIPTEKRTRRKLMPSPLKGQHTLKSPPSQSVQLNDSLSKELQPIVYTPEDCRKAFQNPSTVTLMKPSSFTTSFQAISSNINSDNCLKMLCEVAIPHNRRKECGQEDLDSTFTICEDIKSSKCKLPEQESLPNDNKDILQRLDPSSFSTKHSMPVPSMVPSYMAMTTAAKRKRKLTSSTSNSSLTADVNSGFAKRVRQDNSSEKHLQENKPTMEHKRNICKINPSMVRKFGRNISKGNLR
KIF18A, sequence (P02550 whole entry partner): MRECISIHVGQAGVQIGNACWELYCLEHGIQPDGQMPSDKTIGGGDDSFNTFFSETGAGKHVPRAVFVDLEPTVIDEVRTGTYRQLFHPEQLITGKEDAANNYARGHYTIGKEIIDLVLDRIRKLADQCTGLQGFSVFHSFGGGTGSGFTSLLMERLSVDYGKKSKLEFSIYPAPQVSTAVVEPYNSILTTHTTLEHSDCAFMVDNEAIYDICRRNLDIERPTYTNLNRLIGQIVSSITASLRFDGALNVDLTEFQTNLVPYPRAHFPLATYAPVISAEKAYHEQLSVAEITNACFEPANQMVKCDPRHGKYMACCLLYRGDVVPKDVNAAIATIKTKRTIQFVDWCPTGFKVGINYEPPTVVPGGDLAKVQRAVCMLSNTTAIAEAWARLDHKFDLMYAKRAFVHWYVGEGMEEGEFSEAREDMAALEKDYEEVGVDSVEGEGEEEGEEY
KIF18A, sequence (P02554 whole entry partner): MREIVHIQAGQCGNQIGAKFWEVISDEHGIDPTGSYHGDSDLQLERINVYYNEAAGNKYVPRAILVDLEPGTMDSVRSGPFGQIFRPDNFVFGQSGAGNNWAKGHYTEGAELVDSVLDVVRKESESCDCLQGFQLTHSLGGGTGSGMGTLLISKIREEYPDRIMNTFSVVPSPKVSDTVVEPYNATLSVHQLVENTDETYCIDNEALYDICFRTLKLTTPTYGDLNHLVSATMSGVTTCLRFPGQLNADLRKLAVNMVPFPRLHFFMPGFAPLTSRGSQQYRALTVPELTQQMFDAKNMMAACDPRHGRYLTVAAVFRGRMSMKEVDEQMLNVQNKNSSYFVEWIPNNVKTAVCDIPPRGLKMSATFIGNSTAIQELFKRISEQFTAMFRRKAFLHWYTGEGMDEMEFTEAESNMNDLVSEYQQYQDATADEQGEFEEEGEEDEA

Compound	IC50 (KIF18A)	IC50 (OVCAR-3 cells)	IC50 (HCC1954 cells)	IC50 (HCC1395 cells)	IC50 (OVCAR-3 cells; Homo sapiens, OVCAR-3, 240 h)	AUC (PK study in ICR mice; read-out: AUC)	Cmax (PK study in ICR mice; read-out: Cmax)	IC50 (hERG channel)	IC50 (HCC1954 cells; Homo sapiens, HCC1954, 144 h)	IC50 (HCC1395 cells; Homo sapiens, HCC1395, 144 h)
O=C(Nc1cccc2c1cc(Cl)n2CC1CC1)c1ccc(NS(=O)(=O)CCO)cc1N1CCC2(CC1)CC2 [Example 13, N-(2-chloro-1-(cyclopropylmethyl)-1H-indol-4-yl)-4-((2-hydroxyethyl)sulfonamide)-2-(6-azaspiro[2.5]octan-6-yl)benzamide]	50 to 500 nM	50 to 500 nM	10 to 500 nM	> 5000 nM						
O=C(Nc1cccc2c1ccn2CC1CC1)c1ccc(NS(=O)(=O)CCO)cc1N1CCC2(CC1)CC2 [Example 9, N-(1-(cyclopropylmethyl)-1H-indole-4-(2-hydroxyethyl)sulfonamido)-2-(6-azaspiro[2.5]octan-6-yl)benzamide]	≤ 50 nM	50 to 500 nM	10 to 500 nM	> 5000 nM						
COc1ccc(NC(=O)c2ccc(NS(=O)(=O)CCO)cc2N2CCC3(CC2)CC3)c2cc3n(c12)CCC(F)(F)C3 [Example 478, N-(8,8-difluoro-4-methoxy-6,7,8,9-tetrahydropyridino[1,2-a]indol-1-yl)-4-(2-hydroxyethylsulfonamido)-2-(6-azaspiro[2.5]octan-6-yl)benzamide]					≤ 50 nM	48500 ng·h/mL	6020 ng/mL	8000 nM		
CN1CCn2c(cc3c(NC(=O)c4ccc(NS(=O)(=O)CCO)cc4N4CCC5(CC4)CC5)cccc32)C1 [Example 234, 4-(2-hydroxyethyl)sulfonamido-N-(2-methyl-1,2,3,4-tetrahydropyrazino[1,2-a]indol-9-yl)-2-(6-azaspiro[2.5]octan-6-yl)benzamide]	50 to 500 nM				50 to 500 nM				10 to 500 nM	> 5000 nM
O=C(Nc1cccc2c1ncn2CC1CC1)c1ccc(NS(=O)(=O)CCO)cc1N1CCC2(CC1)CC2 [Example 16]	≤ 50 nM	50 to 500 nM	10 to 500 nM	> 5000 nM						
O=C(Nc1cccc2c1oc(=O)n2CC1CC1)c1ccc(NS(=O)(=O)CCO)cc1N1CCC2(CC1)CC2 [Example 18, N-(3-(cyclopropylmethyl)-2-oxo-2,3-dihydrobenzo[d]oxazol-7-yl)-4-((2-hydroxyethyl)sulfonamido)-2-(6-azaspiro[2.5]oct-6-yl)benzamide]	≤ 50 nM				50 to 500 nM				> 5000 nM	> 5000 nM
COC1c2cc3c(NC(=O)c4ccc(NS(=O)(=O)CCO)cc4N4CCC5(CC4)CC5)cccc3n2CCC1(F)F (centres unmarked) [Example 340, N-(8,8-difluoro-9-methoxy-6,7,8,9-tetrahydropyridino[1,2-a]indol-1-yl)-4-((2-hydroxyethyl)sulfonamido)-2-(6-azaspiro[2.5]oct-6-yl)benzamide]	50 to 500 nM				≤ 50 nM				10 to 500 nM	> 5000 nM
O=C(Nc1cccc2nn(CC3CC3)cc12)c1ccc(NS(=O)(=O)CCO)cc1N1CCC2(CC1)CC2 [Example 269]	≤ 50 nM	50 to 500 nM	10 to 500 nM	> 5000 nM						
O=C(Nc1cc(F)cc2c1ccn2CC1CC1)c1ccc(NS(=O)(=O)CCO)cc1N1CCC2(CC1)CC2 [Example 50]	50 to 500 nM	50 to 500 nM	10 to 500 nM	> 5000 nM						
O=C(Nc1ccc(F)c2c1cc1n2CCOC1)c1ccc(NS(=O)(=O)CCO)cc1N1CCC2(CC1)CC2 [Example 305, N-(6-fluoro-3,4-dihydro-1H-[1,4]oxazino[4,3-a]indol-9-yl)-4-((2-hydroxyethyl)sulfonamido)-2-(6-azaspiro[2.5]oct-6-yl)benzamide]	≤ 50 nM				50 to 500 nM				10 to 500 nM	> 5000 nM
CC1OCCn2c1cc1c(NC(=O)c3ccc(NS(=O)(=O)CCO)cc3N3CCC4(CC3)CC4)cccc12 (centres unmarked) [Example 311, 4-((2-hydroxyethyl)sulfonamido)-N-(1-methyl-3,4-dihydro-1H-[1,4]oxazinyl[4,3-a]indol-9-yl)-2-(6-azaspiro[2.5]oct-6-yl)benzamide]	≤ 50 nM	≤ 50 nM	10 to 500 nM	> 5000 nM						
